{
  "source": "paper PMC5218480",
  "about": "(PLoS ONE, 2017)",
  "test_system": "MV-4-11 cells",
  "assay": "Gene expression microarray analysis (Affymetrix PrimeView) and GSEA",
  "assay_type": "cell-based, human",
  "parameters": "RFU PODN (11730768_x_at) / Fold change /veh PODN (11730768_x_at) / RFU LINC00158 (11744669_a_at) / Fold change /veh LINC00158 (11744669_a_at) / RFU DUSP10 (11751237_a_at) / Fold change /veh DUSP10 (11751237_a_at) / RFU ID3 (11757404_x_at) / Fold change /veh ID3 (11757404_x_at) / RFU PLEKHG5 (11737974_s_at) / Fold change /veh PLEKHG5 (11737974_s_at) / RFU LRRC4B (11730491_at) / Fold change /veh LRRC4B (11730491_at) / RFU GIMAP4 (11747438_a_at) / Fold change /veh GIMAP4 (11747438_a_at) / RFU KRT8 (11758183_x_at) / Fold change /veh KRT8 (11758183_x_at) / RFU CNN1 (11734310_a_at) / Fold change /veh CNN1 (11734310_a_at) / RFU VPS37D (11726825_at) / Fold change /veh VPS37D (11726825_at) / RFU C10orf10 (11716522_x_at) / Fold change /veh C10orf10 (11716522_x_at) / RFU KIR2DL2 /// KIR2DL4 /// KIR2DL5A /// KIR2DL5B /// KIR2DS1 /// KIR2DS2 /// KIR2DS3 /// KIR2DS4 /// KIR3DL3 /// KIR3DL3 /// KIR3DS1 (11738374_at) / Fold change /veh KIR2DL2 /// KIR2DL4 /// KIR2DL5A /// KIR2DL5B /// KIR2DS1 /// KIR2DS2 /// KIR2DS3 /// KIR2DS4 /// KIR3DL3 /// KIR3DL3 /// KIR3DS1 (11738374_at) / RFU C1QL1 (11718748_at) / Fold change /veh C1QL1 (11718748_at) / RFU TMPRSS4 (11747572_a_at) / Fold change /veh TMPRSS4 (11747572_a_at) / RFU HAMP (11756126_x_at) / Fold change /veh HAMP (11756126_x_at) / RFU RNFT2 (11725882_a_at) / Fold change /veh RNFT2 (11725882_a_at) / RFU NR4A2 (11747474_a_at) / Fold change /veh NR4A2 (11747474_a_at) / RFU ABCC12 (11746883_a_at) / Fold change /veh ABCC12 (11746883_a_at) / RFU TMEM136 (11760407_x_at) / Fold change /veh TMEM136 (11760407_x_at) / RFU CLDN22 /// WWC2 (11732394_at) / Fold change /veh CLDN22 /// WWC2 (11732394_at) / RFU HLA-DPB1 (11760878_x_at) / Fold change /veh HLA-DPB1 (11760878_x_at) / RFU SPINT1 (11716480_a_at) / Fold change /veh SPINT1 (11716480_a_at) / RFU GAP43 (11754022_s_at) / Fold change /veh GAP43 (11754022_s_at) / RFU A4GNT (11735810_at) / Fold change /veh A4GNT (11735810_at) / RFU PRB3 (11715151_x_at) / Fold change /veh PRB3 (11715151_x_at) / RFU TUBB4B (11761932_at) / Fold change /veh TUBB4B (11761932_at) / RFU CAPN14 (11732068_a_at) / Fold change /veh CAPN14 (11732068_a_at) / RFU TMCC2 (11721928_a_at) / Fold change /veh TMCC2 (11721928_a_at) / RFU IRGQ (11745062_a_at) / Fold change /veh IRGQ (11745062_a_at) / RFU FAM174B (11720279_a_at) / Fold change /veh FAM174B (11720279_a_at) / RFU TMPRSS4 (11748680_a_at) / Fold change /veh TMPRSS4 (11748680_a_at) / RFU FAM212B (11763350_a_at) / Fold change /veh FAM212B (11763350_a_at) / RFU PLEKHG5 (11743358_a_at) / Fold change /veh PLEKHG5 (11743358_a_at) / RFU ZSCAN30 (11745921_a_at) / Fold change /veh ZSCAN30 (11745921_a_at) / RFU CMKLR1 (11741424_a_at) / Fold change /veh CMKLR1 (11741424_a_at) / RFU LOC101060620 /// MAPK8IP1 (11723275_at) / Fold change /veh LOC101060620 /// MAPK8IP1 (11723275_at) / RFU SPTSSB (11747773_x_at) / Fold change /veh SPTSSB (11747773_x_at) / RFU PRSS12 (11739890_at) / Fold change /veh PRSS12 (11739890_at) / RFU BIN1 (11741810_x_at) / Fold change /veh BIN1 (11741810_x_at) / RFU WNT11 (11732464_a_at) / Fold change /veh WNT11 (11732464_a_at) / RFU C10orf10 (11716521_a_at) / Fold change /veh C10orf10 (11716521_a_at) / RFU C5orf56 (11738089_at) / Fold change /veh C5orf56 (11738089_at) / RFU CYB561 (11721691_x_at) / Fold change /veh CYB561 (11721691_x_at) / RFU ANKRD19P (11752326_a_at) / Fold change /veh ANKRD19P (11752326_a_at) / RFU OR2T12 /// OR2T33 /// OR2T8 (11738714_s_at) / Fold change /veh OR2T12 /// OR2T33 /// OR2T8 (11738714_s_at) / RFU VCAN (11748164_a_at) / Fold change /veh VCAN (11748164_a_at) / RFU JSRP1 (11732532_at) / Fold change /veh JSRP1 (11732532_at) / RFU KRTAP10-11 (11738290_x_at) / Fold change /veh KRTAP10-11 (11738290_x_at) / RFU MYO3A (11730013_a_at) / Fold change /veh MYO3A (11730013_a_at) / RFU EBF3 (11725865_a_at) / Fold change /veh EBF3 (11725865_a_at) / RFU CAMK2N1 (11719241_x_at) / Fold change /veh CAMK2N1 (11719241_x_at) / RFU C5orf56 (11738088_a_at) / Fold change /veh C5orf56 (11738088_a_at) / RFU OLFML3 (11715873_a_at) / Fold change /veh OLFML3 (11715873_a_at) / RFU LOC100653217 /// NTM (11731650_a_at) / Fold change /veh LOC100653217 /// NTM (11731650_a_at) / RFU MAPK11 (11762145_a_at) / Fold change /veh MAPK11 (11762145_a_at) / RFU FIZ1 (11724087_x_at) / Fold change /veh FIZ1 (11724087_x_at) / RFU OASL (11726364_x_at) / Fold change /veh OASL (11726364_x_at) / RFU SOX15 (11748057_x_at) / Fold change /veh SOX15 (11748057_x_at) / RFU CD79A (11719716_a_at) / Fold change /veh CD79A (11719716_a_at) / RFU HIST1H1D (11736915_at) / Fold change /veh HIST1H1D (11736915_at) / RFU CASKIN2 (11723855_a_at) / Fold change /veh CASKIN2 (11723855_a_at) / RFU LOC730098 (11760151_x_at) / Fold change /veh LOC730098 (11760151_x_at) / RFU OR4N2 (11742367_at) / Fold change /veh OR4N2 (11742367_at) / RFU PRRT2 (11749266_a_at) / Fold change /veh PRRT2 (11749266_a_at) / RFU SNX32 (11753110_a_at) / Fold change /veh SNX32 (11753110_a_at) / RFU CDHR5 (11726645_a_at) / Fold change /veh CDHR5 (11726645_a_at) / RFU RCAN1 (11760418_a_at) / Fold change /veh RCAN1 (11760418_a_at) / RFU FAM167A (11723789_a_at) / Fold change /veh FAM167A (11723789_a_at) / RFU FAM26E (11764081_at) / Fold change /veh FAM26E (11764081_at) / RFU ISYNA1 (11749810_s_at) / Fold change /veh ISYNA1 (11749810_s_at) / RFU ACY1 (11761880_at) / Fold change /veh ACY1 (11761880_at) / RFU 11764098_at / Fold change /veh 11764098_at / RFU SAMD14 (11745864_x_at) / Fold change /veh SAMD14 (11745864_x_at) / RFU NPB (11741838_a_at) / Fold change /veh NPB (11741838_a_at) / RFU TMPRSS6 (11731388_a_at) / Fold change /veh TMPRSS6 (11731388_a_at) / RFU KRTAP10-2 (11738614_at) / Fold change /veh KRTAP10-2 (11738614_at) / RFU ARHGAP8 /// PRR5-ARHGAP8 (11727945_x_at) / Fold change /veh ARHGAP8 /// PRR5-ARHGAP8 (11727945_x_at) / RFU KRTAP5-7 /// NADSYN1 (11734609_at) / Fold change /veh KRTAP5-7 /// NADSYN1 (11734609_at) / RFU RASL12 (11751679_a_at) / Fold change /veh RASL12 (11751679_a_at) / RFU CDKN2B (11736163_a_at) / Fold change /veh CDKN2B (11736163_a_at) / RFU PRF1 (11729649_at) / Fold change /veh PRF1 (11729649_at) / RFU, ZNF638 /// ZNF638-IT1 / Fold change vs veh, ZNF638 /// ZNF638-IT1 / RFU, PANK3 / Fold change vs veh, PANK3 / RFU, SH3YL1 / Fold change vs veh, SH3YL1 / RFU, ZEB2 / Fold change vs veh, ZEB2 / RFU, NRIP1 / Fold change vs veh, NRIP1 / RFU, PTTG1IP / Fold change vs veh, PTTG1IP / RFU, CAPN2 / Fold change vs veh, CAPN2 / RFU, MED14 / Fold change vs veh, MED14 / RFU, SNORA58 / Fold change vs veh, SNORA58 / RFU, C1orf63 / Fold change vs veh, C1orf63 / RFU, LRRFIP1 / Fold change vs veh, LRRFIP1 / RFU, NDUFAF7 / Fold change vs veh, NDUFAF7 / RFU, SLC12A2 / Fold change vs veh, SLC12A2 / RFU, IBTK / Fold change vs veh, IBTK / RFU, ESF1 / Fold change vs veh, ESF1 / Fold change vs veh, TMEM50B / RFU, TAOK1 / Fold change vs veh, TAOK1 / RFU, ACBD3 / Fold change vs veh, ACBD3 / RFU, TMA16 / Fold change vs veh, TMA16 / RFU, RWDD3 / Fold change vs veh, RWDD3 / RFU, BCAT1 / Fold change vs veh, BCAT1 / RFU, EDEM3 / Fold change vs veh, EDEM3 / RFU, TMEM33 / Fold change vs veh, TMEM33 / RFU, WDR75 / Fold change vs veh, WDR75 / RFU, AHCTF1 / Fold change vs veh, AHCTF1 / RFU, TFRC / Fold change vs veh, TFRC / RFU, ZDHHC17 / Fold change vs veh, ZDHHC17 / RFU, NOM1 / Fold change vs veh, NOM1 / RFU, ARL8B / Fold change vs veh, ARL8B / RFU, ZBTB11 / Fold change vs veh, ZBTB11 / RFU, TAMM41 / Fold change vs veh, TAMM41 / RFU, KIAA1704 /// LOC100996395 / Fold change vs veh, KIAA1704 /// LOC100996395 / RFU, ING1 / Fold change vs veh, ING1 / RFU, TRMT61B / Fold change vs veh, TRMT61B / RFU, FUBP3 / Fold change vs veh, FUBP3 / RFU, TP53 / Fold change vs veh, TP53 / RFU, TNKS2 / Fold change vs veh, TNKS2 / RFU, ZFP14 / Fold change vs veh, ZFP14 / RFU, ACTR2 / Fold change vs veh, ACTR2 / RFU, PPP3R1 / Fold change vs veh, PPP3R1 / RFU, PIK3R1 / Fold change vs veh, PIK3R1 / RFU, HNRNPA1 / Fold change vs veh, HNRNPA1 / RFU, RNF170 / Fold change vs veh, RNF170 / RFU, ZNF28 / Fold change vs veh, ZNF28 / RFU, RNGTT / Fold change vs veh, RNGTT / RFU, OGT / Fold change vs veh, OGT / RFU, BRD1 / Fold change vs veh, BRD1 / RFU, MARS / Fold change vs veh, MARS / RFU, ZNF655 / Fold change vs veh, ZNF655 / RFU, FAHD1 / Fold change vs veh, FAHD1 / RFU, BDP1 / Fold change vs veh, BDP1 / RFU, LRRCC1 / Fold change vs veh, LRRCC1 / RFU, ARID1A / Fold change vs veh, ARID1A / RFU, ZNF146 / Fold change vs veh, ZNF146 / RFU, ZNF330 / Fold change vs veh, ZNF330 / RFU, GPN3 / Fold change vs veh, GPN3 / RFU, C9orf123 / Fold change vs veh, C9orf123 / RFU, N4BP2L2 / Fold change vs veh, N4BP2L2 / RFU, ARFIP1 / Fold change vs veh, ARFIP1 / RFU, FAM179B / Fold change vs veh, FAM179B / RFU, BCL10 / Fold change vs veh, BCL10 / RFU, UHRF1BP1L / Fold change vs veh, UHRF1BP1L / RFU, BET1 / Fold change vs veh, BET1 / RFU, CNOT2 / Fold change vs veh, CNOT2 / RFU, ZNF268 / Fold change vs veh, ZNF268 / Fold change vs veh, ZNF507 / RFU, DGCR2 / Fold change vs veh, DGCR2 / RFU, WDSUB1 / Fold change vs veh, WDSUB1 / Fold change vs veh, HSP90B1 /// MIR3652 / RFU, ADSS / Fold change vs veh, ADSS / RFU, GK / Fold change vs veh, GK / RFU, ZNF148 / Fold change vs veh, ZNF148 / RFU, TAF9 / Fold change vs veh, TAF9 / RFU, SLC1A5 / Fold change vs veh, SLC1A5 / RFU, SLMO2 / Fold change vs veh, SLMO2 / RFU, ABCC4 / Fold change vs veh, ABCC4 / RFU, LOC101060439 /// RAP1B / Fold change vs veh, LOC101060439 /// RAP1B / RFU, RFX7 / Fold change vs veh, RFX7 / RFU, GTPBP10 / Fold change vs veh, GTPBP10 / RFU, CNEP1R1 / Fold change vs veh, CNEP1R1 / RFU, BIVM-ERCC5 /// ERCC5 / Fold change vs veh, BIVM-ERCC5 /// ERCC5 / RFU, ILF3 / Fold change vs veh, ILF3 / RFU 11762660_at / Fold change /veh 11762660_at / RFU VCAN (11757783_s_at) / Fold change /veh VCAN (11757783_s_at) / RFU DDX43 (11728927_at) / Fold change /veh DDX43 (11728927_at) / RFU KRT8 (11758188_x_at) / Fold change /veh KRT8 (11758188_x_at) / RFU NKD1 (11759106_at) / Fold change /veh NKD1 (11759106_at) / RFU SRD5A1 (11742802_a_at) / Fold change /veh SRD5A1 (11742802_a_at) / RFU TPSAB1 /// TPSB2 (11721975_s_at) / Fold change /veh TPSAB1 /// TPSB2 (11721975_s_at) / RFU GSTM3 (11746129_a_at) / Fold change /veh GSTM3 (11746129_a_at) / RFU IL23R (11737362_x_at) / Fold change /veh IL23R (11737362_x_at) / RFU TMEM51 (11727254_a_at) / Fold change /veh TMEM51 (11727254_a_at) / RFU PIWIL2 (11732686_x_at) / Fold change /veh PIWIL2 (11732686_x_at) / RFU ORM1 (11744905_x_at) / Fold change /veh ORM1 (11744905_x_at) / RFU CCDC152 (11743942_at) / Fold change /veh CCDC152 (11743942_at) / RFU ECM1 (11717891_a_at) / Fold change /veh ECM1 (11717891_a_at) / RFU IL23R (11748794_a_at) / Fold change /veh IL23R (11748794_a_at) / RFU TNFAIP8L3 (11732012_x_at) / Fold change /veh TNFAIP8L3 (11732012_x_at) / RFU MBOAT4 (11741988_at) / Fold change /veh MBOAT4 (11741988_at) / RFU 11764193_at / Fold change /veh 11764193_at / RFU TMEM53 (11763286_at) / Fold change /veh TMEM53 (11763286_at) / RFU MAGEB2 (11727129_at) / Fold change /veh MAGEB2 (11727129_at) / RFU TMEM200A (11744735_a_at) / Fold change /veh TMEM200A (11744735_a_at) / RFU CCDC152 (11751479_a_at) / Fold change /veh CCDC152 (11751479_a_at) / RFU FAM211A (11726209_a_at) / Fold change /veh FAM211A (11726209_a_at) / RFU RGS16 (11746705_a_at) / Fold change /veh RGS16 (11746705_a_at) / RFU VCAN (11755009_s_at) / Fold change /veh VCAN (11755009_s_at) / RFU RHOB (11743442_s_at) / Fold change /veh RHOB (11743442_s_at) / RFU RGS16 (11720943_a_at) / Fold change /veh RGS16 (11720943_a_at) / RFU RGS16 (11720944_at) / Fold change /veh RGS16 (11720944_at) / RFU, VPS4B / Fold change vs veh, VPS4B / RFU, CREB1 / Fold change vs veh, CREB1 / RFU, DNAJC13 / Fold change vs veh, DNAJC13 / RFU, GNAQ / Fold change vs veh, GNAQ / RFU, CDK5R1 / Fold change vs veh, CDK5R1 / RFU, ZRANB3 / Fold change vs veh, ZRANB3 / RFU, CUL4A / Fold change vs veh, CUL4A / RFU, CCNY / Fold change vs veh, CCNY / RFU, UFL1 / Fold change vs veh, UFL1 / RFU, COG3 / Fold change vs veh, COG3 / RFU, DIAPH2 / Fold change vs veh, DIAPH2 / RFU, SKA2 / Fold change vs veh, SKA2 / RFU, AFF3 / Fold change vs veh, AFF3 / RFU, LMF1 / Fold change vs veh, LMF1 / RFU, IPO11 / Fold change vs veh, IPO11 / RFU, DFFB / Fold change vs veh, DFFB / RFU, FOXP1 / Fold change vs veh, FOXP1 / RFU, CARD8 / Fold change vs veh, CARD8 / RFU, STRN3 / Fold change vs veh, STRN3 / RFU, ADK / Fold change vs veh, ADK / RFU, RASSF2 / Fold change vs veh, RASSF2 / RFU, WIPF1 / Fold change vs veh, WIPF1 / RFU, LARP1B / Fold change vs veh, LARP1B / RFU, RASA1 / Fold change vs veh, RASA1 / RFU, RB1 / Fold change vs veh, RB1 / RFU, PPFIA1 / Fold change vs veh, PPFIA1 / RFU, MAT2A / Fold change vs veh, MAT2A / RFU, CCT5 / Fold change vs veh, CCT5 / RFU, WDR92 / Fold change vs veh, WDR92 / RFU, CUX1 / Fold change vs veh, CUX1 / RFU, TTC7A / Fold change vs veh, TTC7A / RFU, TMEM135 / Fold change vs veh, TMEM135 / RFU, DEPTOR / Fold change vs veh, DEPTOR / RFU, CPM / Fold change vs veh, CPM / RFU, DNAJB6 / Fold change vs veh, DNAJB6 / RFU, CACNA2D3 / Fold change vs veh, CACNA2D3 / RFU, DTX4 / Fold change vs veh, DTX4 / RFU, TFCP2 / Fold change vs veh, TFCP2 / RFU, GMCL1 /// GMCL1P1 / Fold change vs veh, GMCL1 /// GMCL1P1 / RFU, AEBP2 / Fold change vs veh, AEBP2 / RFU, SNHG1 /// SNORD22 /// SNORD25 /// SNORD26 /// SNORD27 /// SNORD28 /// SNORD29 /// SNORD31 / Fold change vs veh, SNHG1 /// SNORD22 /// SNORD25 /// SNORD26 /// SNORD27 /// SNORD28 /// SNORD29 /// SNORD31 / Fold change (Aza/veh), C12orf56 (ProbeSet 11735607_a_at) / Fold change (ACY-1035/veh), C12orf56 (ProbeSet 11735607_a_at) / Fold change (Aza/veh), FGFR1OP (ProbeSet 11751329_s_at) / Fold change (ACY-1035/veh), FGFR1OP (ProbeSet 11751329_s_at) / Fold change (Aza/veh), VPS36 (ProbeSet 11739960_a_at) / Fold change (ACY-1035/veh), VPS36 (ProbeSet 11739960_a_at) / RFU SYPL1 (11715823_x_at) / Fold change /veh SYPL1 (11715823_x_at) / RFU IGFBP7 (11715501_s_at) / Fold change /veh IGFBP7 (11715501_s_at) / RFU REEP3 (11722064_at) / Fold change /veh REEP3 (11722064_at) / RFU IGLL1 (11728026_x_at) / Fold change /veh IGLL1 (11728026_x_at): dose or concentration left out as unconfirmed",
  "conditions": "MV-4-11 cells, 48 hours",
  "data": [
    {"molecule": "Nc1ccc(-c2cccs2)cc1NC(=O)c1ccc2c(c1)cc(C1CC1)n2CCN1CCOCC1", "note": "[ACY-1035]", "values": [
      {"measurement": "Fold change /veh SRD5A1 (11742802_a_at)", "result": 1.16}
    ]}
  ]
}
